This is an account of results in patent publication US20210008142A1, “PREPARATION AND USES OF SPINOSIN-Na FROM ZIZIPHI SPINOSAE SEMEN” (Shanxi University, priority 2019, published 2021).

Converted amounts (≈) assume the structure as drawn. Read-outs that look alike come from different tables or passages of the source.

A word on the IC50: it is the point on the concentration scale where inhibition reaches its midpoint. Low values mean greater potency, high ones weaker potency.

For series [1] the following is noted: spinosin prepared by the existing methods; cited from earlier work.
The test system of series [2] is Colon cancer cell line HCT116. As to the kind of experiment: MTT assay, tumor cell proliferation. The series is classed as cell-based. As to conditions: 48 h; for IC50: HCT-116, MTT. The procedure:
(§1) Colon cancer cell line HCT116, cervical cancer cell line Hela, breast cancer cell MCF-7, liver cancer cell HepG2 and normal colonic epithelial cell line FHC in the logarithmic phase were harvested and respectively made into a suspension. After counted, the suspensions were adjusted to 6000 cells/100 μL, and then 100 μL, of respective suspensions were seeded into a 96-well plate, and cultured at 37° C. and 5% CO2 overnight. After that, the culture medium was discarded, and the wells were respectively added with culture mediums containing different concentrations of spinosin-Na, such that final concentrations of the spinosin-Na were respectively 50, 100, 150, 200 and 250 μg/mL. 5 parallel wells were set for each concentration treatment. The cells were continuously cultured in the incubator for 48 h. After that, the culture medium was discarded, and the cells were washed twice with PBS, added with 20 μL of 5.0 mg/mL MTT and continuously cultured for 4 h. The culture medium was discarded, and respective wells were added with 150 μL of DMSO to dissolve formazan crystals produced by living cells. The plate was shaken on a shaker for 10 min, and then transferred to a microplate reader for the measurement of absorbance at 570 nm.
(§2) The antitumor activity of different concentrations of spinosin (100, 200, 300, 400, 500 μg/mL) was measured by the same method described above.
On the technique in general: Tetrazolium assays rely on reduction of a dye to a coloured formazan, in cell work by metabolically active cells.

Series [3] concerns cervical cancer cell line Hela. As to the kind of experiment: MTT assay, tumor cell proliferation. The format is cell-based. As to conditions: 48 h; for IC50: MTT. The procedure: as §1, §2
Series [4] concerns colon cancer cells HCT116. As to the kind of experiment: Annexin V/PI flow cytometry apoptosis. The note with it: HCT116, 48 h. The series is classed as cell-based. The procedure:
(§3) HCT116 and Hela cells in the logarithmic phase were harvested, digested with 0.25% trypsin, and seeded into a 6-well cell culture plate at a density of 1×10^5 cells per petri dish. The cells were cultured at 37° C. and 5% CO2 in an incubator overnight. After the cell adhesion was observed, the culture medium was replaced, and the dishes were respectively added with different concentrations of spinosin-Na. At the same time, a blank control was set, and each concentration treatment was performed in triplicate. The cells were continuously cultured in the incubator under the same conditions for 48 h. After that, the adherent cells were digested with 0.25% trypsin followed by centrifugation at 1,000 rpm for 5 min. The supernatant was discarded, and the cells were washed twice with PBS. The cells were suspended with 200 μL of a mixture of Annexin V and Binding buffer and reacted at 4° C. in the dark for 30 min. 300 μL of a mixed solution of PI and Binding buffer was added to each sample 5 min before the test. The double-stained cells were detected by flow cytometry to identify normal cells, early apoptotic cells, late apoptotic cells and necrotic cells, determining the apoptosis rate. […]
On the technique in general: Flow cytometry measures light scatter and fluorescence of single cells or particles in a stream.

The subject of series [5] is cervical cancer cells Hela. As to the kind of experiment: Annexin V/PI flow cytometry apoptosis. The series is classed as cell-based. The note with it: 48 h. The procedure: as §3
For series [6], the system named is normal colonic epithelial cell line FHC. As to the kind of experiment: MTT assay, normal cell proliferation. The series is classed as cell-based. As to conditions: 50-250 μg/mL, 48 h. The procedure: as §1, §2
The next series is described as follows: Water solubility. The format is physicochemical.
Another series relates to breast cancer cell MCF-7. As to the kind of experiment: MTT assay, tumor cell proliferation. The series is classed as cell-based. As to conditions: 48 h. The procedure: as §1, §2
A further series has as its system liver cancer cell HepG2. As to the kind of experiment: MTT assay, tumor cell proliferation. The format is cell-based. The note with it: 48 h. The procedure:
as §1, §2

With `COc1cc2oc(-c3ccc(O)cc3)cc(=O)c2c(O)c1[C@@H]1O[C@H](CO)[C@@H](O)[C@H](O)[C@H]1O[C@@H]1O[C@H](CO)[C@@H](O)[C@H](O)[C@H]1O` [Spinosin, spinosin], the water solubility entry in series [1] is listed as “poor water-solubility”. In addition, the IC50 in series [2] worked out at 732.71 ± 18.97 µg/mL (≈ 1200 µM); in series [3], 687.60 ± 2132 µg/mL (≈ 1130 µM).

Regarding spinosin-Na, the “apoptosis of tumor cells” value in [4] and in [5] was “significantly induce the apoptosis” each time. Also, the “effect on proliferation of normal cells” value in series [6] is “no significant effect”. Further, the water solubility entry in the series “Water solubility” is “good water solubility”. For the same compound, the “proliferation of tumor cells” value in [2] (HCT116, 50-250 μg/mL) is given as “significantly inhibit the proliferation”; in the series on breast cancer cell MCF-7 (MCF-7, 50-250 μg/mL), “significantly inhibit the proliferation”; in series [3] (50-250 μg/mL), “significantly inhibit the proliferation”; with liver cancer cell HepG2 (HepG2, 50-250 μg/mL) it was “significantly inhibit the proliferation”. The IC50 in series [2] came out at 147.20 ± 4.65 µg/mL; in the series with breast cancer cell MCF-7 (MCF7, MTT), 291.79 ± 10.49 µg/mL; in series [3], 178.41 ± 6.83 µg/mL; with liver cancer cell HepG2 (HepG2, MTT) it was 444.08 ± 15.21 µg/mL.
